From patent US8932597B2 (priority 2008, dated 2015)

Columns and labels:
[1] = system: anti-M2 human monoclonal antibody Z3G1; format: binding
[2] = system: HuM2e antibody 23K12; format: binding, human

Row | Substance | Signal (peptides that show specific binding to Z3G1) [1] | Signal (peptides that bind to 23K21 and 8I10) [2] | Signal (peptides that bind to Z3G1) [1]
1 | 684 (SLLTEVETPIRNHWGCRCNDSSD; epitope peptide) [compound 684] | 2377 | 728 | –
2 | 584 (SLLTEVETPIRNEWGCRRNDSSD; epitope peptide) [compound 584] | 2383 | 855 | –
3 | 619 (SLLTEVETPIRNEWGCRCNASSD; epitope peptide) [compound 619] | – | 807 | 2454
4 | 552 (SLLTEVETPIRNEWGCYCNDSSD; epitope peptide) [compound 552] | 2397 | 913 | –
5 | 571 (SLLTEVETPIRNLWGCRCNDSSD; epitope peptide) [compound 571] | 2415 | 870 | –
6 | 545 (SLLTEVSTPIRNEWGCRCNDSSD; epitope peptide) [compound 545] | 2288 | 923 | –
7 | 618 (SLLTEVETPIRNEWGCRCLDSSD; epitope peptide) [compound 618] | – | 807 | 2480
8 | 414 (SLLTEVETPIRNEWGCRCNDQSD; epitope peptide) [compound 414] | – | 739 | 2349
9 | 532 (MSCLTEVGMSLLTEV; epitope peptide) [compound 532] | – | 968 | 2336
10 | 409 (SLLTEVETPIRNEWGCRCNDKSD; epitope peptide) [compound 409] | – | 898 | 2484
11 | 710 (SLLTEVETPIRREWGCRCNDSSD; epitope peptide) [compound 710] | 2278 | 707 | –
12 | 671 (SLLTEVETPIRNEPGCRCNDSSD; epitope peptide) [compound 671] | 2279 | 735 | –
13 | 573 (SLLTEVETPIRNEWGCRTNDSSD; epitope peptide) [compound 573] | 2374 | 867 | –
14 | 309 (CSLLTEVGMSLLCEV; epitope peptide) [compound 309] | – | 1891 | 2734
15 | 428 (SLLTEVETPIRNEWGCRCNDSPD; epitope peptide) [compound 428] | – | 772 | 2344
16 | 445 (SLLTEVETPIRNEWGCRCN; epitope peptide) [compound 445] | – | 977 | 2506
17 | 371 (MSLCTEVGMSLLTEV; epitope peptide) [compound 371] | – | 1468 | 2691
18 | 291 (MSLLTEVGMCLCTCV; epitope peptide) [compound 291] | – | 2110 | 2842
19 | 504 (SLLTEVETPIRNEWGFRCNDSSD; epitope peptide) [compound 504] | 2349 | 1057 | –

Row | Substance | Signal (peptides that show specific binding to Z3G1) [1] | Signal (peptides that bind to 23K21 and 8I10) [2] | Signal (peptides that bind to Z3G1) [1]
20 | 612 (SLLTEVETPIRNEWGCRCIDSSD; epitope peptide) [compound 612] | – | 812 | 2450
21 | 511 (SLLCEVGCSLLTEV; epitope peptide) [compound 511] | 2562 | 1044 | –
22 | 668 (SLLTEVETPIRNEWGYRCNDSSD; epitope peptide) [compound 668] | 2410 | 739 | –
23 | 702 (SLLTEVETPIRNYWGCRCNDSSD; epitope peptide) [compound 702] | 2311 | 714 | –
24 | 644 (SLLTEVETPIRNEWGVRCNDSSD; epitope peptide) [compound 644] | 2444 | 764 | –
25 | 665 (SLLTEVETPFRNEWGCRCNDSSD; epitope peptide) [compound 665] | 2229 | 745 | –
26 | 636 (SLLTEVETPIRNEIGCRCNDSSD; epitope peptide) [compound 636] | 2402 | 768 | –
27 | 592 (MSLCTEVGCSLLTEC; epitope peptide) [compound 592] | – | 840 | 1971
28 | 559 (SLLTEVETAIRNEWGCRCNDSSD; epitope peptide) [compound 559] | 2415 | 895 | –
29 | 649 (SLLTEVETTIRNEWGCRCNDSSD; epitope peptide) [compound 649] | 2295 | 760 | –
30 | 585 (SLLTEVETPIRLEWGCRCNDSSD; epitope peptide) [compound 585] | 2468 | 853 | –
31 | 527 (SLLTEVEQPIRNEWGCRCNDSSD; epitope peptide) [compound 527] | 2344 | 986 | –
32 | 406 (SLLTEVETPIRNEWGCRCNDFSD; epitope peptide) [compound 406] | – | 788 | 2395
33 | 565 (SLLTEVETPIRVEWGCRCNDSSD; epitope peptide) [compound 565] | 2300 | 884 | –
34 | 705 (SLLTEVKTPIRNEWGCRCNDSSD; epitope peptide) [compound 705] | 1905 | 712 | –
35 | 568 (SLLTEVETPIRNEWGCRCQDSSD; epitope peptide) [compound 568] | – | 877 | 2438
36 | 239 (CSLLTEVETCEVETPIRNEWGSRSNC; epitope peptide) [compound 239] | 2549 | 821 | –
37 | 425 (SLLTEVETPIRNEWGCRCNDSKD; epitope peptide) [compound 425] | – | 770 | 2361
38 | 629 (SLLTEVMTPIRNEWGCRCNDSSD; epitope peptide) [compound 629] | 2331 | 783 | –

Row | Substance | Signal (peptides that show specific binding to Z3G1) [1] | Signal (peptides that bind to 23K21 and 8I10) [2] | Signal (peptides that bind to Z3G1) [1]
39 | 703 (SLLTEVETPIRNWWGCRCNDSSD; epitope peptide) [compound 703] | 2293 | 713 | –
40 | 294 (MSCLCECGMSLLTEV; epitope peptide) [compound 294] | – | 2039 | 1006
41 | 438 (SLLTEVETPIRN; epitope peptide) [compound 438] | – | 751 | 2130
42 | 326 (SLLTEVETPIRNEWGCRCNDSSD; epitope peptide) [compound 326] | 2476 | 1749 | –
43 | 656 (SLLTEVETPIWNEWGCRCNDSSD; epitope peptide) [compound 656] | 2250 | 753 | –
44 | 292 (CSLLTEVGSLLTEC; epitope peptide) [compound 292] | 2213 | 2094 | –
45 | 452 (SLLTEVGSLLTEC; epitope peptide) [compound 452] | 1862 | 1326 | –
46 | 399 (SLLTEVETPIRNEWGCRCNTSSD; epitope peptide) [compound 399] | – | 795 | 2483
47 | 641 (SLLTEVETPIRNELGCRCNDSSD; epitope peptide) [compound 641] | 2436 | 765 | –
48 | 681 (SLLTEVETPIRNEWACRCNDSSD; epitope peptide) [compound 681] | 2431 | 729 | –
49 | 223 (CVETPIRNEWGSRSNDCSLLTEVETC; epitope peptide) [compound 223] | 2233 | 905 | –
50 | 670 (SLLTEVETWIRNEWGCRCNDSSD; epitope peptide) [compound 670] | 2146 | 736 | –
51 | 484 (SLVTEVETPIRNEWGCRCNDSSD; epitope peptide) [compound 484] | 2029 | 1175 | –
52 | 516 (SLLTEVETPIRNEWGCRCPDSSD; epitope peptide) [compound 516] | – | 1024 | 2449
53 | 555 (SLLTEVETPIRNEWGCRCWDSSD; epitope peptide) [compound 555] | – | 901 | 2462
54 | 440 (SLLTEVETPIRNEW; epitope peptide) [compound 440] | – | 750 | 2334
55 | 201 (CEVETPIRNEWGSRSNCSLLTEVETC; epitope peptide) [compound 201] | 2288 | 1007 | –
56 | 411 (SLLTEVETPIRNEWGCRCNDMSD; epitope peptide) [compound 411] | – | 744 | 2405
57 | 388 (CSLLTEVGCLLTEV; epitope peptide) [compound 388] | 2427 | 1351 | –
